Patent US20070043000A1, “Immunosuppresive effects of pteridine derivatives” (priority 2003, published 2007)

The compounds below were run on TNF-alpha production by PBMC (assay: TNF-alpha assay, LPS-stimulated PBMC, sandwich ELISA). Settings: Table 7; same conditions as example 26; read-out: TNFα IC50.
Format: cell-based, human
Method: (§1) All reagents were dissolved in 0.5 ml dimethylsulfoxide (hereinafter referred as DMSO) and further diluted in culture medium before use for the following in vitro experiments. The commercially available culture medium consisted of RPMI-1640+10% foetal calf serum (FCS). Peripheral blood mononuclear cells (herein referred as PBMC), in response to stimulation by lipopolysaccharide (LPS), a gram-negative bacterial endotoxin, produce various […], in particular human TNF-alpha and II-1 beta. The inhibition of the activation of PBMC can be measured by the level of suppression of the production of TNF-alpha or IL-1 beta by PBMC in response to stimulation by LPS. Such inhibition measurement was performed as follows: PBMC were isolated from heparinized peripheral blood (Buffy coat) by density gradient centrifugation. LPS is then added to the PMBC suspension in complete medium (10^6 cells/ml) at a final concentration of 1 μg/ml. The compound to be tested was added at different dilution levels, and the cells were incubated at 37° C. for 72 hours. The supernatants were collected, and TNF-alpha or II-1 beta concentrations were measured with respectively an anti-TNF antibody or an anti-IL-1 beta antibody in a sandwich ELISA. The percent inhibition was calculated as: % inhibition=(pg/ml in sample−pg/ml min.)/(pg/ml max.−pg/ml min.)−1 wherein: min.: pg/ml in culture medium without test compound, and • max.: pg/ml in culture medium+LPS without test compound.
Work on `CCOC(=O)CCCn1c(=O)c2nc(-c3ccccc3)c(Cl)nc2n(C)c1=O` [Example 55, 7-chloro-3-(ethyl butyrate)-1-methyl-6-phenyl-lumazine] yielded an IC50 of 0.5 µM. `Cn1c(=O)n(CCN2CCCCC2)c(=O)c2nc(-c3ccccc3)c(Cl)nc21` [Example 77, 7-chloro-1-methyl-6-phenyl-3-(2-piperidinoethyl)-lumazine] was tested, and the IC50 was 3.7 µM. Compound `CCOC(=O)CCCn1c(=O)c2nc(-c3ccc(OC)cc3)c(F)nc2n(C)c1=O` [Example 83, 3-(ethyl butyrate)-7-fluoro-1-methyl-6-(4-methoxyphenyl)-lumazine] has an IC50 of 4.9 µM. Work on `Cn1c(=O)n(CCO)c(=O)c2nc(-c3ccccc3)c(Cl)nc21` [Example 57, 7-chloro-3-(2-hydroxyethyl)-1-methyl-6-phenyl-lumazine] yielded an IC50 of 0.4 µM. For `COc1ccc(-c2nc3c(=O)n(CCN4CCOCC4)c(=O)n(C)c3nc2Br)cc1OC` [Example 82, 7-bromo-1-methyl-3-(2-morpholinoethyl)-6-(3,4dimethoxyphenyl)-lumazine], the IC50 was 10 µM. `COc1ccc(-c2nc3c(=O)[nH]c(=O)n(C)c3nc2Br)cc1OC` [Example 50, 7-bromo-6-(3,4-dimethoxyphenyl)-1-methyl-lumazine] was tested, and the IC50 was 1 µM. `COc1ccc(-c2nc3c(=O)[nH]c(=O)n(C)c3nc2Br)cc1` [Example 51, 7-bromo-6-(4-methoxyphenyl)-1-methyl-lumazine] showed an IC50 of 4.6 µM. Work on `Cn1c(=O)c2nc(-c3ccc(O)cc3)c(Br)nc2n(C)c1=O` [Example 84, 7-bromo-1,3-dimethyl-6-(4-hydroxyphenyl)-lumazine] yielded an IC50 of 0.9 µM. With `COc1ccc(-c2nc3c(=O)n(CCO)c(=O)n(C)c3nc2Cl)cc1OC` [Example 64, 7-chloro-6-(3,4-dimethoxyphenyl)-3-(2-hydroxyethyl)-1-methyl-lumazine] the IC50 was 0.7 µM. Compound `COc1ccc(-c2nc3c(=O)n(C)c(=O)n(C)c3nc2Cl)cc1` [Example 76, 7-chloro-1,3-dimethyl-6-(4-methoxyphenyl)-lumazine] has an IC50 of 0.6 µM. Work on `CCOC(=O)Cn1c(=O)c2nc(-c3ccccc3)c(Cl)nc2n(C)c1=O` [Example 71, 7-chloro-3-(ethyl acetate)-1-methyl-6-phenyl-lumazine] yielded an IC50 of 3.4 µM. `CC(C)OC(=O)CCCn1c(=O)c2nc(-c3ccccc3)c(Cl)nc2n(C)c1=O` [Example 87, 7-chloro-3-(isopropyl 4-butyrate)-1-methyl-6-phenyl-lumazine] showed an IC50 of 6.1 µM. `CCn1c(=O)n(CCCC(=O)O)c(=O)c2nc(-c3ccccc3)c(Cl)nc21` [Example 86, 7-chloro-3-(n-butyric acid)-1-ethyl-6-phenyl-lumazine] gave an IC50 of 8.4 µM. `Cc1ccc(-c2nc3c(=O)[nH]c(=O)n(C)c3nc2Cl)cc1` [Example 52, 7-chloro-1-methyl-6-(4-methylphenyl)-lumazine] was tested, and the IC50 was 1.1 µM. In the case of `Cn1c(=O)[nH]c(=O)c2nc(-c3ccc(Cl)cc3)c(Cl)nc21` [Example 54, 7-chloro-6-(4-chlorophenyl)-1-methyl-lumazine], the IC50 is reported as 3.8 µM.

What follows are compounds tested on peripheral blood mononuclear cells (PBMC) (assay: Mixed lymphocyte reaction (MLR) test). Settings: Table 2; [3H]-thymidine incorporation after 5 days incubation.
Format: cell-based, human
Method: All reagents were dissolved in 0.5 ml dimethylsulfoxide (hereinafter referred as DMSO) and further diluted in culture medium before use for the following in vitro experiments. The commercially available culture medium consisted of RPMI-1640+10% foetal calf serum (FCS). Peripheral blood mononuclear cells (hereinafter referred as PBMC) were isolated from heparinized peripheral blood by density gradient centrifugation over Lymphoprep (Nycomed, Maorstua, Norway). Allogeneic PBMC or […]-Barr Virus-transformed human B cells [commercially available under the trade name RPMI1788 (ATCC name CCL156)] which strongly express B7-1 and B7-2 antigens were used as stimulator cells after irradiation with 30 Gy. MLR was performed in triplicate wells. After 5 days incubation at 37° C., 1 μCi [^3H]-thymidine was added to each cup. After a further 16 hours incubation, cells were harvested and counted in a β-counter. Inhibition of proliferation by a compound (drug) described in some of the previous examples was counted using the formula: [formula] wherein cpm is the thymidine count per minute. TNF-Alpha and IL-1 Beta Assays
In the case of `Cn1c(=O)[nH]c(=O)c2nc(-c3ccccc3)c(Cl)nc21` [Example 14, 1-methyl-6-phenyl-7-chloro-lumazine], the IC50 is reported as 4.1 µM.

Same assay, conditions: Table 7; same conditions as example 26
With `CCOC(=O)CCCn1c(=O)c2nc(-c3ccccc3)c(Cl)nc2n(C)c1=O` [Example 55, 7-chloro-3-(ethyl butyrate)-1-methyl-6-phenyl-lumazine] the IC50 was 4.9 µM. Work on `Cn1c(=O)n(CCN2CCCCC2)c(=O)c2nc(-c3ccccc3)c(Cl)nc21` [Example 77, 7-chloro-1-methyl-6-phenyl-3-(2-piperidinoethyl)-lumazine] yielded an IC50 of 3.4 µM. Work on `CCOC(=O)CCCn1c(=O)c2nc(-c3ccc(OC)cc3)c(F)nc2n(C)c1=O` [Example 83, 3-(ethyl butyrate)-7-fluoro-1-methyl-6-(4-methoxyphenyl)-lumazine] yielded an IC50 of 4.5 µM. In the case of `Cn1c(=O)n(CCO)c(=O)c2nc(-c3ccccc3)c(Cl)nc21` [Example 57, 7-chloro-3-(2-hydroxyethyl)-1-methyl-6-phenyl-lumazine], the IC50 is reported as 5 µM. `COc1ccc(-c2nc3c(=O)n(CCN4CCOCC4)c(=O)n(C)c3nc2Br)cc1OC` [Example 82, 7-bromo-1-methyl-3-(2-morpholinoethyl)-6-(3,4dimethoxyphenyl)-lumazine] gave an IC50 of 4.6 µM. Work on `COc1ccc(-c2nc3c(=O)[nH]c(=O)n(C)c3nc2Br)cc1OC` [Example 50, 7-bromo-6-(3,4-dimethoxyphenyl)-1-methyl-lumazine] yielded an IC50 of 4 µM. `COc1ccc(-c2nc3c(=O)[nH]c(=O)n(C)c3nc2Br)cc1` [Example 51, 7-bromo-6-(4-methoxyphenyl)-1-methyl-lumazine] showed an IC50 of 3.6 µM. With `Cn1c(=O)c2nc(-c3ccc(O)cc3)c(Br)nc2n(C)c1=O` [Example 84, 7-bromo-1,3-dimethyl-6-(4-hydroxyphenyl)-lumazine] the IC50 was 4.1 µM. For `COc1ccc(-c2nc3c(=O)n(CCO)c(=O)n(C)c3nc2Cl)cc1OC` [Example 64, 7-chloro-6-(3,4-dimethoxyphenyl)-3-(2-hydroxyethyl)-1-methyl-lumazine], the IC50 was 5.7 µM. With `COc1ccc(-c2nc3c(=O)n(C)c(=O)n(C)c3nc2Cl)cc1` [Example 76, 7-chloro-1,3-dimethyl-6-(4-methoxyphenyl)-lumazine] the IC50 was 4.5 µM. With `CCOC(=O)Cn1c(=O)c2nc(-c3ccccc3)c(Cl)nc2n(C)c1=O` [Example 71, 7-chloro-3-(ethyl acetate)-1-methyl-6-phenyl-lumazine] the IC50 was 2.8 µM. For `CC(C)OC(=O)CCCn1c(=O)c2nc(-c3ccccc3)c(Cl)nc2n(C)c1=O` [Example 87, 7-chloro-3-(isopropyl 4-butyrate)-1-methyl-6-phenyl-lumazine], the IC50 was 5.4 µM. `CCn1c(=O)n(CCCC(=O)O)c(=O)c2nc(-c3ccccc3)c(Cl)nc21` [Example 86, 7-chloro-3-(n-butyric acid)-1-ethyl-6-phenyl-lumazine] was tested, and the IC50 was 4.6 µM. `Cc1ccc(-c2nc3c(=O)[nH]c(=O)n(C)c3nc2Cl)cc1` [Example 52, 7-chloro-1-methyl-6-(4-methylphenyl)-lumazine] was tested, and the IC50 was 3.5 µM.

Each compound was assayed on IL-1 beta production by PBMC (assay: IL-1 beta assay, LPS-stimulated PBMC, sandwich ELISA). Settings: Table 2; LPS 1 μg/ml, 72 hours; read-out: IL-1 IC50.
Format: cell-based, human
Method: as §1
In the case of `Cn1c(=O)[nH]c(=O)c2nc(-c3ccccc3)c(Cl)nc21` [Example 14, 1-methyl-6-phenyl-7-chloro-lumazine], the IC50 is reported as 0.35 µM.

Same assay, conditions: Table 7; same conditions as example 26; read-out: IL1β IC50
In the case of `CCOC(=O)CCCn1c(=O)c2nc(-c3ccccc3)c(Cl)nc2n(C)c1=O` [Example 55, 7-chloro-3-(ethyl butyrate)-1-methyl-6-phenyl-lumazine], the IC50 is reported as 0.6 µM. Compound `Cn1c(=O)n(CCN2CCCCC2)c(=O)c2nc(-c3ccccc3)c(Cl)nc21` [Example 77, 7-chloro-1-methyl-6-phenyl-3-(2-piperidinoethyl)-lumazine] has an IC50 of 0.7 µM. For `CCOC(=O)CCCn1c(=O)c2nc(-c3ccc(OC)cc3)c(F)nc2n(C)c1=O` [Example 83, 3-(ethyl butyrate)-7-fluoro-1-methyl-6-(4-methoxyphenyl)-lumazine], the IC50 was 6.4 µM. Compound `Cn1c(=O)n(CCO)c(=O)c2nc(-c3ccccc3)c(Cl)nc21` [Example 57, 7-chloro-3-(2-hydroxyethyl)-1-methyl-6-phenyl-lumazine] has an IC50 of 0.7 µM. Work on `COc1ccc(-c2nc3c(=O)n(CCN4CCOCC4)c(=O)n(C)c3nc2Br)cc1OC` [Example 82, 7-bromo-1-methyl-3-(2-morpholinoethyl)-6-(3,4dimethoxyphenyl)-lumazine] yielded an IC50 of 5.7 µM. `COc1ccc(-c2nc3c(=O)[nH]c(=O)n(C)c3nc2Br)cc1OC` [Example 50, 7-bromo-6-(3,4-dimethoxyphenyl)-1-methyl-lumazine] was tested, and the IC50 was 0.6 µM. `COc1ccc(-c2nc3c(=O)[nH]c(=O)n(C)c3nc2Br)cc1` [Example 51, 7-bromo-6-(4-methoxyphenyl)-1-methyl-lumazine] gave an IC50 of 5.7 µM. Compound `Cn1c(=O)c2nc(-c3ccc(O)cc3)c(Br)nc2n(C)c1=O` [Example 84, 7-bromo-1,3-dimethyl-6-(4-hydroxyphenyl)-lumazine] has an IC50 of 3.9 µM. For `COc1ccc(-c2nc3c(=O)n(CCO)c(=O)n(C)c3nc2Cl)cc1OC` [Example 64, 7-chloro-6-(3,4-dimethoxyphenyl)-3-(2-hydroxyethyl)-1-methyl-lumazine], the IC50 was 0.5 µM. `COc1ccc(-c2nc3c(=O)n(C)c(=O)n(C)c3nc2Cl)cc1` [Example 76, 7-chloro-1,3-dimethyl-6-(4-methoxyphenyl)-lumazine] gave an IC50 of 0.6 µM. `CCOC(=O)Cn1c(=O)c2nc(-c3ccccc3)c(Cl)nc2n(C)c1=O` [Example 71, 7-chloro-3-(ethyl acetate)-1-methyl-6-phenyl-lumazine] showed an IC50 of 0.6 µM. `CC(C)OC(=O)CCCn1c(=O)c2nc(-c3ccccc3)c(Cl)nc2n(C)c1=O` [Example 87, 7-chloro-3-(isopropyl 4-butyrate)-1-methyl-6-phenyl-lumazine] showed an IC50 of 2.8 µM. Compound `CCn1c(=O)n(CCCC(=O)O)c(=O)c2nc(-c3ccccc3)c(Cl)nc21` [Example 86, 7-chloro-3-(n-butyric acid)-1-ethyl-6-phenyl-lumazine] has an IC50 of 2.5 µM. `Cn1c(=O)[nH]c(=O)c2nc(-c3ccc(Cl)cc3)c(Cl)nc21` [Example 54, 7-chloro-6-(4-chlorophenyl)-1-methyl-lumazine] was tested, and the IC50 was 0.5 µM.
